From patent publication US20090082350A1, “SOLUBLE EPOXIDE HYDROLASE INHIBITORS” (Arete Therapeutics, Inc., priority 2007, published 2009)

Assays:
[1] = test system: soluble epoxide hydrolase (sEH); assay: Fluorescent assay for mouse and human soluble epoxide hydrolase (CMNPC substrate); format: biochemical
From the text: Fluorescent Assay for Mouse and Human Soluble Epoxide Hydrolase
Recombinant mouse sEH (MsEH) and human sEH (HsEH) were produced in a baculovirus expression system as previously reported. Grant et al., J. Biol. Chem., 268:17628-17633 (1993); Beetham et al., Arch. Biochem. Biophys., 305:197-201 (1993). The expressed proteins were purified from cell lysate by affinity chromatography. Wixtrom et al., Anal. Biochem., 169:71-80 (1988). Protein concentration was quantified using the Pierce BCA assay using bovine serum albumin as the calibrating standard. The preparations were at least 97% pure as judged by SDS-PAGE and scanning densitometry. They contained no detectable esterase or glutathione transferase activity which can interfere with the assay. The assay was also evaluated with similar results in crude cell lysates or homogenate of tissues.
The IC50s for each inhibitor were according to the following procedure:
Cyano(2-methoxynaphthalen-6-yl)methyl (3-phenyloxiran-2-yl)methyl carbonate (CMNPC; Jones P. D. et. al.; Analytical Biochemistry 2005; 343: pp. 66-75)
Bis/Tris HCl 25 mM pH 7.0 containing 0.1 mg/mL of BSA (buffer A)
CMNPC at 0.25 mM in DMSO.
Mother solution of enzyme in buffer A (Mouse sEH at 6 μg/mL and Human sEH at […]).
Inhibitor dissolved in DMSO at the appropriate concentration.
In a black 96 well plate, fill all the wells with 150 μL of buffer A.
Add 2 μL of DMSO in well A2 and A3, and then add 2 μL of inhibitor solution in A1 and A4 through A12.
Add […] of buffer A in row A, then mix several time and transfer 150 L to row B. Repeat this operation up to row H. The 150 L removed from row H go to the trash.
Add […] of buffer A in column 1 and 2, then add […] of enzyme solution to column 3 to 12.
Incubate the plate for 5 minutes in the plate reader at 30° C.
During incubation prepare the working solution of substrate by mixing 3.68 mL of buffer A (4×0.920 mL) with 266 μL (2×133 μL) of substrate solution).
At t=0, add 30 L of working substrate solution with multi-channel pipette labeled “Briggs 303” and start the reading ([S]final: 5 μM).
Read with ex: 330 nm (20 nm) and em: 465 nm (20 nm) every 30 second for 10 minutes. The velocities are used to analyze and calculate the IC50s.

[2] = inhibitor concentration 5000 nM
[3] = inhibitor concentration 50000 nM

| Compound | melting point | % Inh ([1]; inhibitor concentration 50 nM) | also measured |
| --- | --- | --- | --- |
| COc1ccc(-c2cc(NC(=O)NC34CC5CC(CC(C5)C3)C4)[nH]n2)cc1 [Compound 1, 1-adamantan-1-yl-3-(3-(4-methoxyphenyl)-1H-pyrazol-5-yl)urea] | – | – | % Inh [1, 2]: 89% |
| COc1ccc(-c2cc(NC(=O)Nc3ccc(C(F)(F)F)cc3)[nH]n2)cc1 [Compound 2, 1-(3-(4-methoxyphenyl)-1H-pyrazol-5-yl)-3-(4-(trifluoromethyl)phenyl)urea] | 228 to 231 °C | – | % Inh ([1]; inhibitor concentration 500 nM): 89% |
| O=C(Nc1ccc(C(F)(F)F)cc1)Nc1ccc(C(=O)N2CCOCC2)s1 [Compound 3, 1-(5-(morpholine-4-carbonyl)thiophen-2-yl)-3-(4-(trifluoromethyl)phenyl)urea] | 250 to 253 °C | 98% | – |
| CC(=O)Nc1ccc(NC(=O)NC23CC4CC(CC(C4)C2)C3)cn1 [Compound 4, N-(5-(3-adamantylureido)pyridin-2-yl)acetamide] | 252 to 254 °C | 77% | – |
| COc1ccc(-c2cc(NC(=O)Nc3cccc(C(F)(F)F)c3)[nH]n2)cc1 [Compound 5, 1-(3-(4-methoxyphenyl)-1H-pyrazol-5-yl)-3-(3-(trifluoromethyl)phenyl)urea] | 189 to 194 °C | – | % Inh [1, 2]: 92% |
| CC(=O)Nc1ccc(NC(=O)Nc2ccc(Cl)cc2)cn1 [Compound 6, N-(5-(3-(4-chlorophenyl)ureido)pyridin-2-yl)acetamide] | 269 to 271 °C | – | % Inh ([1]; inhibitor concentration 500 nM): 87% |
| COc1ccc(NC(=O)NC23CC4CC(CC(C4)C2)C3)cn1 [Compound 7, 1-adamantan-1-yl-3-(6-methoxypyridin-3-yl)urea] | 205 to 211 °C | 64% | – |
| O=C(Nc1ccc(C(F)(F)F)cc1)Nc1ccc(C(=O)N2CCOCC2)cn1 [Compound 8, 1-(5-(morpholine-4-carbonyl)pyridin-2-yl)-3-(4-(trifluoromethyl)phenyl)urea] | 233 to 237 °C | – | % Inh ([1]; inhibitor concentration 500 nM): 69% |
| COc1ccc(-c2nnc(NC(=O)NC34CC5CC(CC(C5)C3)C4)s2)cc1 [Compound 9, 1-adamantan-1-yl-3-(5-(4-methoxyphenyl)-1,3,4-thiadiazol-2-yl)urea] | 324 to 328 °C | – | % Inh [1, 3]: 37% |
| COc1ccc(-c2nnc(NC(=O)Nc3cccc(C(F)(F)F)c3)s2)cc1 [Compound 10, 1-(5-(4-methoxyphenyl)-1,3,4-thiadiazol-2-yl)-3-(3-(trifluoromethyl)phenyl)urea] | 331 to 336 °C | – | % Inh ([1]; inhibitor concentration 12500 nM): 39% |
| O=C(Nc1ccc(Cl)cc1)Nc1ccc(C(=O)N2CCOCC2)s1 [Compound 11, 1-(4-chlorophenyl)-3-(5-(morpholine-4-carbonyl)thiophen-2-yl)urea] | 242 to 245 °C | 76% | – |
| O=C(Nc1ccc(C(F)(F)F)cc1)Nc1cccc(C(=O)N2CCOCC2)n1 [Compound 12, 1-(6-(morpholine-4-carbonyl)pyridin-2-yl)-3-(4-(trifluoromethyl)phenyl)urea] | 208 to 210 °C | – | % Inh [1, 3]: 96% |
| O=C(Nc1ccc(C(F)(F)F)cc1)Nc1cc(C(=O)N2CCOCC2)cs1 [Compound 13, 1-(4-(morpholine-4-carbonyl)thiophen-2-yl)-3-(4-(trifluoromethyl)phenyl)urea] | 250 to 253 °C | 73% | – |
| O=C(Nc1cccc(C(F)(F)F)c1)Nc1cc(C(=O)N2CCOCC2)cs1 [Compound 14, 1-(4-(morpholine-4-carbonyl)thiophen-2-yl)-3-(3-(trifluoromethyl)phenyl)urea] | 210 to 215 °C | – | % Inh [1, 2]: 89% |
| O=C(Nc1ccc(C(F)(F)F)cc1)Nc1ccc(Oc2ccccc2)nc1 [Compound 15, 1-(6-phenoxypyridin-3-yl)-3-(4-(trifluoromethyl)phenyl)urea] | – | 90% | – |
| O=C(Nc1ccc(Oc2ccccc2)nc1)NC12CC3CC(CC(C3)C1)C2 [Compound 16, 1-adamantan-1-yl-3-(6-phenoxypyridin-3-yl)urea] | 185 to 188 °C | 95% | – |
| O=C(Nc1ccc(C(F)(F)F)cc1)Nc1cc(C(=O)N2CCOCC2)ccn1 [Compound 17, 1-(4-(morpholine-4-carbonyl)pyridin-2-yl)-3-(4-(trifluoromethyl)phenyl)urea] | 200 to 206 °C | – | % Inh ([1]; inhibitor concentration 500 nM): 91% |
| O=C(Nc1ccc(Cl)cc1)Nc1cccc(C(=O)N2CCOCC2)n1 [Compound 18, 1-(4-chlorophenyl)-3-(6-(morpholine-4-carbonyl)pyridin-2-yl)urea] | 205 to 208 °C | – | % Inh [1, 3]: 87% |
| O=C(Nc1ccc(Cl)cc1)Nc1cc(C(=O)N2CCOCC2)ccn1 [Compound 19, 1-(4-chlorophenyl)-3-(4-(morpholine-4-carbonyl)pyridin-2-yl)urea] | 189 to 192 °C | – | % Inh ([1]; inhibitor concentration 500 nM): 72% |
| O=C(Nc1cccc(C(F)(F)F)c1)Nc1cccc(C(=O)N2CCOCC2)n1 [Compound 20, 1-(6-(morpholine-4-carbonyl)pyridin-2-yl)-3-(3-(trifluoromethyl)phenyl)urea] | 175 to 179 °C | – | % Inh [1, 3]: 96% |
| CCOC(=O)c1cnc(NC(=O)NC23CC4CC(CC(C4)C2)C3)s1 [Compound 21, ethyl 2-(3-adamantylureido)thiazole-5-carboxylate] | – | – | % Inh ([1]; inhibitor concentration 500 nM): 97% |
| COc1ccc(-c2cc(NC(=O)Nc3ccc(Cl)cc3)on2)cc1 [Compound 22, 1-(4-chlorophenyl)-3-(3-(4-methoxyphenyl)isoxazol-5-yl)urea] | 165 to 170 °C | – | % Inh [1, 2]: 92% |
| O=C(Nc1ccc(C(F)(F)F)cc1)Nc1cncc(C(=O)N2CCOCC2)c1 [Compound 23, 1-(5-(morpholine-4-carbonyl)pyridin-3-yl)-3-(4-(trifluoromethyl)phenyl)urea] | 114 to 118 °C | – | % Inh ([1]; inhibitor concentration 500 nM): 75% |
| O=C(Nc1cncc(C(=O)N2CCOCC2)c1)Nc1cccc(C(F)(F)F)c1 [Compound 24, 1-(5-(morpholine-4-carbonyl)pyridin-3-yl)-3-(3-(trifluoromethyl)phenyl)urea] | 75 to 80 °C | – | % Inh [1, 2]: 60% |
| O=C(Nc1ncc(C(=O)O)s1)NC12CC3CC(CC(C3)C1)C2 [Compound 25, 2-(3-adamantylureido)thiazole-5-carboxylic acid] | – | – | % Inh [1, 3]: 81% |
| CCOC(=O)c1nnc(NC(=O)NC23CC4CC(CC(C4)C2)C3)s1 [Compound 26, ethyl 5-(3-adamantylureido)-1,3,4-thiadiazole-2-carboxylate] | – | 91% | – |
